“And” between values parts separate entries of the source, which are not always exact repeats. Equal values may be shown once. Records with an inconclusive call do not appear.
The compounds below were run on SK-MEL-5 DCT mRNA qPCR, delta-delta-Ct, overnight (assay: suppression of MITF target gene DCT mRNA, dose response, orthogonal assay for MITF inhibitor project, cell-based, SK-MEL-5, RT-qPCR, dry powder samples (AID 651771)).
Compound `COC1=C(Nc2ccccc2)C(=O)c2ccccc2C1=O` has an AC40 of 838 nM.
In the case of `O=C1C(Nc2ccc(Br)cc2)=C(N2CCCCC2)C(=O)c2ccccc21`, the AC40 is reported as 12600 nM.
`O=C1C=C(NS(=O)(=O)c2ccc(Br)cc2)C(=O)c2ccccc21` was tested, and the AC40 was 7250 nM.
Work on `NC1=C(NS(=O)(=O)c2ccccc2)C(=O)c2ccccc2C1=O` yielded an AC40 of 3020 nM.
`O=C1C(Nc2ccccc2)=C(c2ccccc2)C(=O)c2ccccc21` gave an AC40 of 10400 nM.
Compound `O=C1C(Nc2ccc(Cl)cc2)=C(N2CCCC2)C(=O)c2ccccc21` has an AC40 of 9530 nM.
Compound `CC(C)N1CCN(C2=C(Nc3ccc(F)cc3F)C(=O)c3ccccc3C2=O)CC1` has an AC40 of 3670 nM.
`C=CCNC1=C(Cl)C(=O)c2ccccc2C1=O` showed an AC40 of 1000 nM.
Work on `CCN1CCN(C2=C(NC(=O)c3ccccc3)C(=O)c3ccccc3C2=O)CC1` yielded an AC40 of 884 nM.
Work on `O=C1C=C(Nc2ccc([N+](=O)[O-])c(C(F)(F)F)c2)C(=O)c2ccccc21` yielded an AC40 of 1050 nM.
Compound `Cc1nc2ccccc2n1/N=C/c1ccc([N+](=O)[O-])s1` has an AC40 of 1540 nM.
`NC1=CC(=O)c2ccccc2C1=O` showed an AC40 of 966 nM.
In the case of `CC(C)N1CCN(C2=C(Nc3ccc(F)cc3)C(=O)c3ccccc3C2=O)CC1`, the AC40 is reported as 2900 nM.
`CCN1CCN(C2=C(NS(=O)(=O)c3ccc(Br)cc3)C(=O)c3ccccc3C2=O)CC1` showed an AC40 of 3380 nM.
With `O=C1C=C(NS(=O)(=O)c2ccccc2)C(=O)c2ccccc21` the AC40 was 4060 nM.
In the case of `CN1CCN(C2=C(NS(=O)(=O)c3ccc(Br)s3)C(=O)c3ccccc3C2=O)CC1`, the AC40 is reported as 1680 nM.
Compound `NC1=C(NS(=O)(=O)c2cccs2)C(=O)c2ccccc2C1=O` has an AC40 of 2010 nM.
`O=C(NC1=C(Cl)C(=O)c2ccccc2C1=O)c1ccccc1` gave an AC40 of 336 nM.
For `COC1=C(NS(=O)(=O)c2ccc(Br)cc2)C(=O)c2ccccc2C1=O`, the AC40 was 8650 nM.
For `COc1ccc(NC2=C(N3CCCCC3)C(=O)c3ccccc3C2=O)cc1`, the AC40 was 12800 nM.
`Cc1ccc(NC2=CC(=O)c3ccccc3C2=O)cc1` was tested, and the AC40 was 277 nM.
`COC1=C(NS(=O)(=O)c2cccs2)C(=O)c2ccccc2C1=O` gave an AC40 of 9010 nM.
For `NS(=O)(=O)c1ccc(NC2=CC(=O)c3ccccc3C2=O)cc1`, the AC40 was 55.5 nM.
`O=C1C=C(NS(=O)(=O)c2cccs2)C(=O)c2ccccc21` gave an AC40 of 4640 nM.
In the case of `NC1=C(NS(=O)(=O)c2ccc(Br)cc2)C(=O)c2ccccc2C1=O`, the AC40 is reported as 12800 nM.
`O=C1C=C(Nc2ccccc2)C(=O)c2ccccc21` was tested, and the AC40 was 302 nM and 325 nM.
In the case of `NC1=C(NC(=O)c2ccccc2)C(=O)c2ccccc2C1=O`, the AC40 is reported as 1730 nM.
`CCN1CCN(C2=C(Nc3ccc(F)cc3F)C(=O)c3ccccc3C2=O)CC1` gave an AC40 of 4780 nM.
